Where two headings read alike, the source gives them in different places.
How the values were obtained:
[1] = biological target: T1, MCR-1 (Homo sapiens, UniProt Q01726); test: Melanocortin receptor binding assay, competition with 125I-HP 467, HEK 293 cells expressing hMCR-1; conditions: for IC50 / MC-1 IC50: inhibition of binding of 125I-HP 467, HEK 293 cells expressing MCR-1; for IC50: read-out: MC-1 IC50; for % Disp. MC-1 10 μM: displacement of 125I-HP 467 at 10 μM isoquinoline compound
T1 construct: expressed in transfected cells; host or cells: HEK 293
How it was run: (§1)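 Test compounds compete on intact HEK 293 cells carrying hMCR-1 (2×10^4 per tube) or hMCR-4 (4×10^3 per tube), suspended in PBS, 10% calf serum, 1 mM CaCl2.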

[2] = biological target: T2, MCR-4 (Homo sapiens, UniProt P32245); test: Melanocortin receptor binding assay, competition with 125I-HP 467, HEK 293 cells expressing hMCR-4; conditions: inhibition of binding of 125I-HP 467, HEK 293 cells expressing MCR-4; for IC50: read-out: MC-4 IC50
T2 construct: expressed in transfected cells; host or cells: HEK 293
How it was run: as §1

T2 sequence (P32245 whole entry): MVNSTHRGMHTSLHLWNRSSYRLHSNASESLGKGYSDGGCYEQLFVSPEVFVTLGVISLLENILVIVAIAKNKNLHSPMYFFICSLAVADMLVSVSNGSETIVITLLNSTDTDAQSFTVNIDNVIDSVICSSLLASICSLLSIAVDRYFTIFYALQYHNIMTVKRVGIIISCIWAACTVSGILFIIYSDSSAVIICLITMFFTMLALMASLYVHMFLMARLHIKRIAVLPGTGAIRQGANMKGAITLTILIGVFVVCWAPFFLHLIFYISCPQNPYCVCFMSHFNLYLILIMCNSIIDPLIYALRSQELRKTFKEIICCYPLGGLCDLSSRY
T1 sequence (Q01726 whole entry): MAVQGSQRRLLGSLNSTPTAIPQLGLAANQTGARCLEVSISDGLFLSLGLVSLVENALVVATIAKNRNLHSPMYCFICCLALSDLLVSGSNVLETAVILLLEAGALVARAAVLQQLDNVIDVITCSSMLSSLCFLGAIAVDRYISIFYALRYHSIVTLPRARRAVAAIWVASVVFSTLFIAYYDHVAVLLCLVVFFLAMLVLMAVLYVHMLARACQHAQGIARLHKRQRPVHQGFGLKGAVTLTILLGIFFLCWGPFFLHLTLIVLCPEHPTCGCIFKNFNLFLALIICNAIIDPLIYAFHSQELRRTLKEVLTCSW

Row | Compound | IC50 ([1]; TRG 2414 library) | IC50 ([2]; TRG 2414 library) | further results
1 | COc1ccccc1CCNCC1c2ccccc2CN(CCCCC(CN)NCC(C)c2ccc(CC(C)C)cc2)C1c1ccccc1Br (stereo not drawn) [Cmpd 212] | 18.3 µM | 16.6 µM | 
2 | NCC(N)CCCCN1Cc2ccccc2C(CNCCc2cccc(Cl)c2)C1c1ccccc1Br (stereo not drawn) [Cmpd 213] | 6.48 µM | 2.06 µM | 
3 | NCC(CCCCN1Cc2ccccc2C(CNCCc2cccc(Cl)c2)C1c1ccccc1Br)NCCc1ccccc1 (stereo not drawn) [Cmpd 214] | 7.38 µM | 4.76 µM | 
4 | NCC(CCCCN1Cc2ccccc2C(CNCCc2cccc(Cl)c2)C1c1ccccc1Br)NCc1ccccc1 (stereo not drawn) [Cmpd 215] | 8.51 µM | 6.43 µM | 
5 | CC(C)Cc1ccc(C(C)CNC(CN)CCCCN2Cc3ccccc3C(CNCCc3cccc(Cl)c3)C2c2ccccc2Br)cc1 (stereo not drawn) [Cmpd 216] | 48.3 µM | 39 µM | 
6 | COc1cccc(CNCC2c3ccccc3CN(CCCCC(N)CN)C2c2ccccc2Br)c1 (stereo not drawn) [Cmpd 217] | 5.56 µM | 2.42 µM | 
7 | COc1cccc(CNCC2c3ccccc3CN(CCCCC(CN)NCCc3ccccc3)C2c2ccccc2Br)c1 (stereo not drawn) [Cmpd 218] | 8.2 µM | 10.8 µM | 
8 | COc1cccc(CNCC2c3ccccc3CN(CCCCC(CN)NCc3ccccc3)C2c2ccccc2Br)c1 (stereo not drawn) [Cmpd 219] | 10.3 µM | 9.59 µM | 
9 | COc1cccc(CNCC2c3ccccc3CN(CCCCC(CN)NCC(C)c3ccc(CC(C)C)cc3)C2c2ccccc2Br)c1 (stereo not drawn) [Cmpd 220] | 40.6 µM | 35.1 µM | 
10 | COc1ccc(CNCC2c3ccccc3CN(CCCCC(N)CN)C2c2ccccc2Br)cc1 (stereo not drawn) [Cmpd 221] | 6.61 µM | 1.83 µM | 
11 | COc1ccc(CNCC2c3ccccc3CN(CCCCC(CN)NCCc3ccccc3)C2c2ccccc2Br)cc1 (stereo not drawn) [Cmpd 222] | 5.05 µM | 4.78 µM | 
12 | COc1ccc(CNCC2c3ccccc3CN(CCCCC(CN)NCc3ccccc3)C2c2ccccc2Br)cc1 (stereo not drawn) [Cmpd 223] | 10.6 µM | 8.22 µM | 
13 | COc1ccc(CNCC2c3ccccc3CN(CCCCC(CN)NCC(C)c3ccc(CC(C)C)cc3)C2c2ccccc2Br)cc1 (stereo not drawn) [Cmpd 224] | 31.5 µM | 22.7 µM | 
14 | COc1ccc(CCNCC2c3ccccc3CN(CCCCC(N)CN)C2c2ccccc2Br)cc1 (stereo not drawn) [Cmpd 225] | 4.52 µM | 2.04 µM | 
15 | COc1ccc(CCNCC2c3ccccc3CN(CCCCC(CN)NCCc3ccccc3)C2c2ccccc2Br)cc1 (stereo not drawn) [Cmpd 226] | 5.17 µM | 3.42 µM | 
16 | COc1ccc(CCNCC2c3ccccc3CN(CCCCC(CN)NCc3ccccc3)C2c2ccccc2Br)cc1 (stereo not drawn) [Cmpd 227] | 4.49 µM | 3.71 µM | 
17 | COc1ccc(CCNCC2c3ccccc3CN(CCCCC(CN)NCC(C)c3ccc(CC(C)C)cc3)C2c2ccccc2Br)cc1 (stereo not drawn) [Cmpd 228] | 17.7 µM | 8.79 µM | 
18 | NCC(N)CCCCN1Cc2ccccc2C(CNCc2ccccc2)C1c1ccccc1Br (stereo not drawn) [Cmpd 229] | 8.63 µM | 1.29 µM | 
19 | NCC(CCCCN1Cc2ccccc2C(CNCc2ccccc2)C1c1ccccc1Br)NCCc1ccccc1 (stereo not drawn) [Cmpd 230] | 6.48 µM | 5.46 µM | 
20 | NCC(CCCCN1Cc2ccccc2C(CNCc2ccccc2)C1c1ccccc1Br)NCc1ccccc1 (stereo not drawn) [Cmpd 231] | 11 µM | 9.13 µM | 
21 | CC(C)Cc1ccc(C(C)CNC(CN)CCCCN2Cc3ccccc3C(CNCc3ccccc3)C2c2ccccc2Br)cc1 (stereo not drawn) [Cmpd 232] | 32.7 µM | 23.4 µM | 
22 | NCC(N)CCCCN1Cc2ccccc2C(CNC2CCCCCC2)C1c1ccccc1Br (stereo not drawn) [Cmpd 233] | 3.32 µM | 3.27 µM | 
23 | NCC(CCCCN1Cc2ccccc2C(CNC2CCCCCC2)C1c1ccccc1Br)NCCc1ccccc1 (stereo not drawn) [Cmpd 234] | 4.41 µM | 5.28 µM | 
24 | NCC(CCCCN1Cc2ccccc2C(CNC2CCCCCC2)C1c1ccccc1Br)NCc1ccccc1 (stereo not drawn) [Cmpd 235] | 2.86 µM | 5.35 µM | 

Row | Compound | IC50 ([1]; TRG 2414 library) | IC50 ([2]; TRG 2414 library) | further results
25 | CC(C)Cc1ccc(C(C)CNC(CN)CCCCN2Cc3ccccc3C(CNC3CCCCCC3)C2c2ccccc2Br)cc1 (stereo not drawn) [Cmpd 236] | 14 µM | 18 µM | 
26 | NCC(N)CCCCN1Cc2ccccc2C(CNC2CCCCC2)C1c1ccccc1Br (stereo not drawn) [Cmpd 237] | 5.87 µM | 3.61 µM | 
27 | NCC(CCCCN1Cc2ccccc2C(CNC2CCCCC2)C1c1ccccc1Br)NCCc1ccccc1 (stereo not drawn) [Cmpd 238] | 2.78 µM | 5.22 µM | 
28 | NCC(CCCCN1Cc2ccccc2C(CNC2CCCCC2)C1c1ccccc1Br)NCc1ccccc1 (stereo not drawn) [Cmpd 239] | 3.3 µM | 6.27 µM | 
29 | CC(C)Cc1ccc(C(C)CNC(CN)CCCCN2Cc3ccccc3C(CNC3CCCCC3)C2c2ccccc2Br)cc1 (stereo not drawn) [Cmpd 240] | 8.98 µM | 9.9 µM | 
30 | COc1ccccc1CCNCC1c2ccccc2CN(CCCCC(N)CN)C1c1ccc(Cl)cc1Cl (stereo not drawn) [Cmpd 241] |  |  | MC-1 IC50 ([1]; TRG 2414 library): no fit; MC-4 IC50 ([2]; TRG 2414 library): no fit
31 | NCC(N)CCCCN1Cc2ccccc2C(CNCCc2cccc(Cl)c2)C1c1ccc(Cl)cc1Cl (stereo not drawn) [Cmpd 244] | 44.1 µM |  | MC-4 IC50 ([2]; TRG 2414 library): no fit
32 | COc1ccc(CNCC2c3ccccc3CN(CCCCC(N)CN)C2c2ccc(Cl)cc2Cl)cc1 (stereo not drawn) [Cmpd 247] |  |  | MC-1 IC50 ([1]; TRG 2414 library): no fit; MC-4 IC50 ([2]; TRG 2414 library): no fit
33 | COc1ccc(CCNCC2c3ccccc3CN(CCCCC(N)CN)C2c2cc(C(F)(F)F)cc(C(F)(F)F)c2)cc1 (stereo not drawn) [Cmpd 262] |  |  | MC-1 IC50 ([1]; TRG 2414 library): no fit; MC-4 IC50 ([2]; TRG 2414 library): no fit
34 | COc1ccccc1CCNCC1c2ccccc2CN(CCCCC(N)CN)C1c1ccc(Oc2ccccc2)cc1 (stereo not drawn) [Cmpd 265] |  |  | MC-1 IC50 ([1]; TRG 2414 library): no fit; MC-4 IC50 ([2]; TRG 2414 library): no fit
35 | NCC(N)CCCCN1Cc2ccccc2C(CNCCc2cccc(Cl)c2)C1c1ccc(Oc2ccccc2)cc1 (stereo not drawn) [Cmpd 268] |  |  | MC-1 IC50 ([1]; TRG 2414 library): no fit; MC-4 IC50 ([2]; TRG 2414 library): no fit
36 | COc1ccc(CNCC2c3ccccc3CN(CCCCC(N)CN)C2c2ccc(Oc3ccccc3)cc2)cc1 (stereo not drawn) [Cmpd 271] |  |  | MC-1 IC50 ([1]; TRG 2414 library): no fit; MC-4 IC50 ([2]; TRG 2414 library): no fit
37 | COc1ccc(CCNCC2c3ccccc3CN(CCCCC(N)CN)C2c2ccc(Oc3ccccc3)cc2)cc1 (stereo not drawn) [Cmpd 274] |  |  | MC-1 IC50 ([1]; TRG 2414 library): no fit; MC-4 IC50 ([2]; TRG 2414 library): no fit
38 | CCCOc1ccc(C2C(CNCCc3ccccc3OC)c3ccccc3CN2CCCCC(N)CN)cc1 (stereo not drawn) [Cmpd 277] |  |  | MC-1 IC50 ([1]; TRG 2414 library): no fit; MC-4 IC50 ([2]; TRG 2414 library): no fit
39 | CCCOc1ccc(C2C(CNCCc3cccc(Cl)c3)c3ccccc3CN2CCCCC(N)CN)cc1 (stereo not drawn) [Cmpd 280] |  |  | MC-1 IC50 ([1]; TRG 2414 library): no fit; MC-4 IC50 ([2]; TRG 2414 library): no fit
40 | CCCOc1ccc(C2C(CNCc3ccc(OC)cc3)c3ccccc3CN2CCCCC(N)CN)cc1 (stereo not drawn) [Cmpd 283] |  |  | MC-1 IC50 ([1]; TRG 2414 library): no fit; MC-4 IC50 ([2]; TRG 2414 library): no fit
41 | Cn1cccc1C1C(CNC2CCCCC2)c2ccccc2CN1CCN (stereo not drawn) [TRG 2405-4] |  |  | IC50 ([1]; TRG 2405 section): 2.17 µM; % Disp. MC-1 10 μM ([1]; first of duplicate): 76.8%; % Disp. MC-1 10 μM ([1]; second of duplicate): 77.7%; IC50 ([2]; TRG 2405 section): 11.6 µM
42 | NCCN1Cc2ccccc2C(CNC2CCCCC2)C1c1cc(C(F)(F)F)cc(C(F)(F)F)c1 (stereo not drawn) [TRG 2405-28] |  |  | IC50 ([1]; TRG 2405 section): 8.75 µM; % Disp. MC-1 10 μM ([1]; first of duplicate): 52%; % Disp. MC-1 10 μM ([1]; second of duplicate): 52.5%; IC50 ([2]; TRG 2405 section): 9.24 µM
43 | Cc1cccc(C2C(CNC3CCCCC3)c3ccccc3CN2CCN)c1 (stereo not drawn) [TRG 2405-47] |  |  | IC50 ([1]; TRG 2405 section): 14.3 µM; % Disp. MC-1 10 μM ([1]; first of duplicate): 42.3%; % Disp. MC-1 10 μM ([1]; second of duplicate): 45.8%; IC50 ([2]; TRG 2405 section): 18.9 µM
44 | NCCN1Cc2ccccc2C(CNC2CCCCC2)C1c1ccc([N+](=O)[O-])o1 (stereo not drawn) [TRG 2405-80] |  |  | IC50 ([1]; TRG 2405 section): 8.66 µM; % Disp. MC-1 10 μM ([1]; first of duplicate): 30.8%; % Disp. MC-1 10 μM ([1]; second of duplicate): 52.9%; IC50 ([2]; TRG 2405 section): 20.8 µM
45 | NCCN1Cc2ccccc2C(CNC2CCCCC2)C1c1ccc[nH]1 (stereo not drawn) [TRG 2405-85] |  |  | IC50 ([1]; TRG 2405 section): 5.98 µM; % Disp. MC-1 10 μM ([1]; first of duplicate): 57.1%; % Disp. MC-1 10 μM ([1]; second of duplicate): 59.8%; IC50 ([2]; TRG 2405 section): 33.5 µM
46 | CNC(CN)CN1Cc2ccccc2C(CNC2CCCCC2)C1c1ccc(Cl)cc1Cl (stereo not drawn) [TRG 2405-100] |  |  | IC50 ([1]; TRG 2405 section): 12.2 µM; % Disp. MC-1 10 μM ([1]; first of duplicate): 54.2%; % Disp. MC-1 10 μM ([1]; second of duplicate): 59.6%; IC50 ([2]; TRG 2405 section): 11.2 µM
47 | CNC(CN)CN1Cc2ccccc2C(CNC2CCCCC2)C1c1ccccn1 (stereo not drawn) [TRG 2405-111] |  |  | IC50 ([1]; TRG 2405 section): 7.48 µM; % Disp. MC-1 10 μM ([1]; first of duplicate): 57.2%; % Disp. MC-1 10 μM ([1]; second of duplicate): 51%; IC50 ([2]; TRG 2405 section): 17.1 µM

Source: patent publication US6608082B1, “Treatment of erectile dysfunction using isoquinoline compound melanocortin receptor ligands” (Lion Bioscience AG, priority 1998, dated 2003)
